Experimental data taken from patent publication US9644002B2, “Allosteric modulators of EGFR and constitutively active mutants” (YALE UNIVERSITY, priority 2013, dated 2017).
“Also recorded” adds a separate entry of the source. Bridge positions count the residues as written; N and C are the ends. Square brackets hold non-standard residues; d marks the D form. Ends that are not written are not given here. R8 = C=CCCCCCC[C@@](C)(N)C(=O)O; S5 = C=CCCC[C@](C)(N)C(=O)O

Legend:
[1] = system: EGFR CCH-1 juxtamembrane coiled coil; assay: Bipartite tetracysteine display (ReAsH, TIRF) of intra-dimer coiled coil formation; format: cell-based; conditions: CHO cells; for change of EGF-induced ReAsH fluorescence: EGFR CCH-1, 1 μM ligand 1 hour, 100 ng/mL EGF
Method: FIG. 21 is a graph depicting the results of example experiments conducted to monitor EGFR intra-dimer coiled coil formation using TIRF and bipartite tetracysteine display. CHO cells were transiently transfected with EGFR CCH-1, treated with 1 μM of the indicated ligand for 1 hour, stimulated with 100 ng/mL EGF for 30 minutes, and labeled with ReAsH (Scheck et al., 2012, ACS Chem Biol, 7: 1367). […] Error bars represent standard error of the mean. *p<0.05, **p<0.01, ***p<0.001, ****p<0.0001, one-way ANOVA with Bonferroni post-analysis accounting for multiple comparisons.
Experiments were conducted using CHO cells expressing an EGFR variant (CCH-1) with a cysteine pair within the JM-A whose location supports ReAsH binding and fluorescence upon EGF-induced coiled coil assembly 24. […] CHO cells transiently expressing the EGFR variant CCH-1 on the cell surface were exposed to native and hydrocarbon-stapled peptides, stimulated with EGF, incubated with ReAsH, and the fluorescence increase due to ReAsH quantified using total internal reflectance fluorescence microscopy (TIR-FM). […] Identical results were observed when cells were treated first with EGF and then with the indicated peptides. None of the peptides tested had any effect on the extent of ReAsH fluorescence in the absence of EGF. […] This work validates the juxtamembrane segment as a viable allosteric target for inhibitor design.

[2] = molecular target: EGFR (Homo sapiens, UniProt P00533); assay: Immunoblot of EGFR phosphorylation in A431 cells; format: cell-based; conditions: 10 μM, Akt and Erk1/2 positions
Method: A431 cells were treated with 10 μM of the ligand shown for 2 hours, stimulated with 10 ng/mL EGF, then lysed, immunoblotted, and visualized. Plots illustrate the increase or decrease in the intensity of the indicated phospho-protein band between treated and untreated cells. Error bars representing standard error of the mean over at least 4 trials.
Activation of EGFR upon growth factor binding leads to a well characterized pattern of Tyr and Ser/Thr phosphorylation events that initiate downstream signaling networks (Olayioye, et al., 2000, EMBO J., 19, 3159). Molecules that block growth factor binding to the extracellular domain, or ATP binding to the intracellular kinase domain, inhibit the phosphorylation of both EGFR and downstream factors such as Erk and Akt (Yarden, et al., 2012, Nat. Rev. Cancer, 12, 553). Immunoblots were used to evaluate whether the effects of JM-A-derived ligands on the viability of EGFR-dependent cell lines correlated with their effects on EGFR phosphorylation and the activation of downstream factors. Specifically, phosphorylation was probed at EGFR tyrosines 845, 1045, 1068, 1086, and 1173, as well as for phospho-Akt (Ser473) and phospho-Erk1/2 (T202/Y204) (FIG. 19).

[3] = system: A431, H2030, H3255, H1975 and SK-N-MC cells; assay: Cell viability across the cell line panel; format: cell-based; conditions: for effect on cell viability: all cell lines tested, 18 h incubation
Source text: Error bars show standard error of the mean.

[4] = molecular target: T1, wtEGFR (Homo sapiens, UniProt P00533); assay: Sequestration of EGFR from CHO-K1 lysates by biotinylated peptides on streptavidin beads; format: binding; conditions: 25 μM biotinylated peptide, 1 hour
T1 construct: expressed in transfected cells; host or cells: CHO-K1 (transient transfection; lysate used)
Method: CHO-K1 lysates were treated with 25 μM of each biotinylated peptide shown for 1 hour, then incubated with streptavidin-coated beads overnight. Sequestered proteins were eluted, electrophoresed, and immunoblotted to detect EGFR. Band intensities were measured using ImageJ (Schneider et al., 2012, Nat. Meth., 9: 671).
Two additional experiments were performed to evaluate whether the E1^S-induced viability changes and decreases in EGFR and Erk/Akt phosphorylation resulted from a direct interaction with the EGFR JM segment. […] Each biotinylated analog (25 μM) was incubated for 1 hour with lysates from wtEGFR-expressing cells, and then incubated with Mag-Sepharose Streptavidin Beads overnight. A mock reaction lacking a biotinylated analog was run alongside. After washing, the sequestered proteins were eluted, resolved by SDS-PAGE (10%), probed with a commercial anti-EGFR antibody, visualized using a horseradish peroxidase-tagged mouse anti-rabbit secondary antibody, and quantified with chemiluminescent detection. […] Little or no EGFR was sequestered when no biotinylated peptide was added (mock), providing additional support for a direct interaction between the hydrocarbon-stapled peptide E1^S and the juxtamembrane segment of wild type EGFR.

Substance	change of EGF-induced ReAsH fluorescence [1]	pattern of phosphorylation changes over all probed positions [2]	effect on cell viability [3]	sequestration of full length wild type EGFR from cell lysates [4]	also measured
E1ΔL^S: hydrocarbon-stapled VRKRZARRAAQXRELVE (SEQ ID NO: 19; E1ΔL), leucines replaced by alanine (VRKR[R8]ARRAAQ[S5]RELVE; staple 5-12)	significant loss in ReAsH fluorescence	little or no decrease in phosphorylation at any position	more modest effects on cell viability		change of EGF-induced ReAsH fluorescence at a lower concentration ([1]; EGFR CCH-1, lower concentration than 1 μM): effectively reduced the ReAsH signal
JM-WT: unmodified EGFR JM-A peptide VRKRTLRRLLQERELVE (SEQ ID NO: 1)	unchanged		none of the cells are sensitive; also recorded: inability to decrease the viability		
TE-64562: polypeptide containing the EGFR juxtamembrane segment fused to HIV Tat (Boran et al., 2012) (YGRKKRRQRRRVRKRTLRRLLQERELVE) [reference compound]		paralleled	moderate decreases in viability		effect on cell viability after 72 h ([3]; 72 h incubation): potency is mitigated significantly
^BE1ΔL^S: biotinylated analog of E1ΔL^S (VRKR[R8]ARRAAQ[S5]RELVE; staple 5-12; also: biotinylated, site of biotin not given here)				sequestered; also recorded: sequester wtEGFR	
^BJM-WT: biotinylated analog of JM-WT (VRKRTLRRLLQERELVE; also: biotinylated)				did not	
^BT1^S: biotinylated analog of T1^S (VRKRT[S5]RRL[S5]QERELVE; staple 6-10 (inferred); also: biotinylated)				did not	
